Measurements: PMC12448936, “Odorant Receptors Mediating Avoidance of Toxic Mustard Oils in Drosophila melanogaster Are Expanded in Herbivorous Relatives” (Molecular Biology and Evolution, 2025)
Like-named read-outs stand apart in the source and are kept apart here.

Experiments:
S. pallida Or42a2 = target: T1, S. pallida Or42a2 (Scaptomyza pallida, UniProt Z9QWX1R862); test: single sensillum recording, at1 empty neuron; assay type: cell-based; details: bound given for three odorants together
T1 construct: full coding region in UAST-attB, attP40 site; D. melanogaster at1 OSNs (Or67d null), host Orco; with Odorant receptor coreceptor (Drosophila melanogaster, endogenous in host neuron)
T1 sequence (Z9QWX1R862 1-406): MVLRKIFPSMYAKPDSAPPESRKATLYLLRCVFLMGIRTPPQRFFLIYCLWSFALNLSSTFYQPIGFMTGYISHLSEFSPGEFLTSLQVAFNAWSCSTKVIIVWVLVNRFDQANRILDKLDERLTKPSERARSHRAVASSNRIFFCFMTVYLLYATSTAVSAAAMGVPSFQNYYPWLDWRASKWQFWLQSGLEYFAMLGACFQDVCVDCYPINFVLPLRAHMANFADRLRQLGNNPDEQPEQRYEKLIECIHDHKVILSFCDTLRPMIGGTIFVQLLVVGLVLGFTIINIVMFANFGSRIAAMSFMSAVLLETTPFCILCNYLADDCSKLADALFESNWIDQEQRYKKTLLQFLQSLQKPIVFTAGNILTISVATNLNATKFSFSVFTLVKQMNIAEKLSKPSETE
T1 sequence (Q9VNB5 1-486 partner): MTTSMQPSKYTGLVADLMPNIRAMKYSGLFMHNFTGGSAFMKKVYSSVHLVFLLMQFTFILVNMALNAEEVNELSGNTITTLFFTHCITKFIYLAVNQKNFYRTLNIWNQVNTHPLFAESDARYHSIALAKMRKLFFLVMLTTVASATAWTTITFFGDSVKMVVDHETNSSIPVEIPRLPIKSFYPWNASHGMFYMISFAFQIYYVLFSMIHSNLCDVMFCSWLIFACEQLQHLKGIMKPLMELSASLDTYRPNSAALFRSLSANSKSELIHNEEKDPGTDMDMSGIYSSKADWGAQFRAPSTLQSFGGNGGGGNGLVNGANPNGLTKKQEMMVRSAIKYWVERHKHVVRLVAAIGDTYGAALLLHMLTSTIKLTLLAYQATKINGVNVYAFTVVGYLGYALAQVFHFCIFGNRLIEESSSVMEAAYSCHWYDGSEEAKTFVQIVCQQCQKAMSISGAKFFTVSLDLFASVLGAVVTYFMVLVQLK

S. flava Or42a2 = target: T2, S. flava Or42a2 (Scaptomyza flava, UniProt Z9B9G2NIU8); test: single sensillum recording, at1 empty neuron; assay type: cell-based; details: volatile stimulus 1:100 vol/vol in mineral oil
T2 construct: full coding region (UTRs removed) in UAST-attB, attP40 site; D. melanogaster at1 OSNs (Or67d null), host Orco; with Odorant receptor coreceptor (Drosophila melanogaster, endogenous in host neuron)
T2 sequence (Z9B9G2NIU8 1-404): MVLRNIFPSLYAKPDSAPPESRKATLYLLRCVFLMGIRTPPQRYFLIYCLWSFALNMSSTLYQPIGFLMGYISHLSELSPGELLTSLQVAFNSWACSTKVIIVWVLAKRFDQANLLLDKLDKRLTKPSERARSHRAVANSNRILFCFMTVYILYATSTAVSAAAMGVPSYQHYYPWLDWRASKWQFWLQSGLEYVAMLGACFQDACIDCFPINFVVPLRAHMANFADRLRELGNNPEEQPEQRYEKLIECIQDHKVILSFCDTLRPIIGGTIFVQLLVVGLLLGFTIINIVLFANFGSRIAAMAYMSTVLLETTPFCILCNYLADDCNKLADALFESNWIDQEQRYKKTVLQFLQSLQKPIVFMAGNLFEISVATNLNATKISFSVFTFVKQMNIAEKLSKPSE
T2 sequence (Q9VNB5 1-486 partner): T1 sequence (Q9VNB5 1-486 partner)

S. flava Or42a4 = target: T3, S. flava Or42a4 (Scaptomyza flava, UniProt Z9LG74I6Y6); test: single sensillum recording, at1 empty neuron; assay type: cell-based
T3 construct: full coding region (UTRs removed) in UAST-attB, attP40 site; D. melanogaster at1 OSNs (Or67d null), host Orco; with Odorant receptor coreceptor (Drosophila melanogaster, endogenous in host neuron)
T3 sequence (Z9LG74I6Y6 1-404): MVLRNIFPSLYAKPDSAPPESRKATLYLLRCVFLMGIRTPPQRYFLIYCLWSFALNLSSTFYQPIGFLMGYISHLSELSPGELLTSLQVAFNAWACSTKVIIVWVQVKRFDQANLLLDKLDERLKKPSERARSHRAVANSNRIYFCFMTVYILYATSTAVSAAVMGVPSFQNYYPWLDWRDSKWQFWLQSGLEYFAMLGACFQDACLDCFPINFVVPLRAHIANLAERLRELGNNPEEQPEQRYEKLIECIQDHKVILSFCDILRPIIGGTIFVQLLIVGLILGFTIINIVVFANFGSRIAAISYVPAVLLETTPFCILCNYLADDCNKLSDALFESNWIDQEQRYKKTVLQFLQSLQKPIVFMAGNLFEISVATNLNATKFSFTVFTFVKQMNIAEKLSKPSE
T3 sequence (Q9VNB5 1-486 partner): T1 sequence (Q9VNB5 1-486 partner)

S. flava Or42a3 [1] = target: T4, S. flava Or42a3 (Scaptomyza flava, UniProt Z9ZJ76RJY6); test: single sensillum recording, at1 empty neuron; assay type: cell-based
T4 construct: full coding region (UTRs removed) in UAST-attB, attP40 site; D. melanogaster at1 OSNs (Or67d null), host Orco; with Odorant receptor coreceptor (Drosophila melanogaster, endogenous in host neuron)
T4 sequence (Z9ZJ76RJY6 1-407): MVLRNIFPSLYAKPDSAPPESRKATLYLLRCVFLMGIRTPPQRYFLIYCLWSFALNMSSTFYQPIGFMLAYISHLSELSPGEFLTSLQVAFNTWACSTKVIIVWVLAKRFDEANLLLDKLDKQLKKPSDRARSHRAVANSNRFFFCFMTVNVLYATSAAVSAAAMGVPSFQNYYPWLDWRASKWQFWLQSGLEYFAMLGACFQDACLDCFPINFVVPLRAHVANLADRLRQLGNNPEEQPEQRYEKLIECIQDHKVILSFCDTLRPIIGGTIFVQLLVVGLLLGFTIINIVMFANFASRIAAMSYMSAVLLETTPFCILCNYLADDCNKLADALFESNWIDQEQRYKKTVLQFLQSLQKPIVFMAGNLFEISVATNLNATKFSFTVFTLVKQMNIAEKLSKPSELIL
T4 sequence (Q9VNB5 1-486 partner): T1 sequence (Q9VNB5 1-486 partner)

D. melanogaster Or42a = target: T5, D. melanogaster Or42a (Drosophila melanogaster, UniProt Q9V9I2); test: single sensillum recording, at1 empty neuron; assay type: cell-based; details: bound given for three odorants together
T5 construct: full length UAS transgene in D. melanogaster at1 OSNs (Or67d-Gal4 null background), endogenous Orco; EC50 from native pb1a OSNs; with Odorant receptor coreceptor (Drosophila melanogaster)
T5 sequence (Q9V9I2 1-406): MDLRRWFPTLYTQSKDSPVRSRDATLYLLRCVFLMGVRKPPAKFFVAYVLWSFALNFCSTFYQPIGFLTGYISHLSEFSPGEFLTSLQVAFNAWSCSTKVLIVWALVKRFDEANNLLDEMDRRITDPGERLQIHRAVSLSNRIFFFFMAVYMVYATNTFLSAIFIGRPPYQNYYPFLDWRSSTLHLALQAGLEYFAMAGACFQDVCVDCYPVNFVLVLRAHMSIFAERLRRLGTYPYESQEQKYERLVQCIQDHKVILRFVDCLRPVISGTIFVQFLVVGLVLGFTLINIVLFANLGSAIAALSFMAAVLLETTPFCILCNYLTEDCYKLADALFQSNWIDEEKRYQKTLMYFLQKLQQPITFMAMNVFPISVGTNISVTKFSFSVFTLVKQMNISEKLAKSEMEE
T5 sequence (Q9VNB5 1-486 partner): T1 sequence (Q9VNB5 1-486 partner)

S. flava Or42a3 [2] = details: heterozygous UAS transgene, Fig. 8 legend prints S301P
[3] = volatile stimulus 1:100 vol/vol in mineral oil
[4] = volatile stimulus 1:100 vol/vol in DMSO

C=CCN=C=S [AITC, allyl isothiocyanate]
spikes/s (S. pallida Or42a2; [3]): > 96 spikes/s
spikes/s (S. flava Or42a2): S. flava Or42a2 was only activated by AITC
spikes/s (S. flava Or42a4; [3]): S. flava Or42a3 or S. flava Or42a4 were also very sensitive to AITC and trans-2-hexenal
spikes/s (S. flava Or42a3 [1]; [3]): S. flava Or42a3 or S. flava Or42a4 were also very sensitive to AITC and trans-2-hexenal
spikes/s (D. melanogaster Or42a; [3]): > 79 spikes/s

CCC/C=C/C=O [trans-2-hexenal]
spikes/s (S. pallida Or42a2; [3]): > 96 spikes/s
spikes/s (S. flava Or42a4; [3]): S. flava Or42a3 or S. flava Or42a4 were also very sensitive to AITC and trans-2-hexenal
spikes/s (S. flava Or42a3 [1]; [3]): S. flava Or42a3 or S. flava Or42a4 were also very sensitive to AITC and trans-2-hexenal
spikes/s (D. melanogaster Or42a; [3]): > 79 spikes/s

CCC1CCC(=O)O1 (stereo not drawn) [γ-hexalactone]
spikes/s (S. flava Or42a3 [2]; [4]): at1 population responses to BITC (white bars) and to γ-hexalactone (gray bars)
spikes/s (S. pallida Or42a2; [4]): > 96 spikes/s
spikes/s (S. flava Or42a4; [4]): < 10 spikes/s
spikes/s (S. flava Or42a3 [1]; [4]): S. flava Or42a3 showed a moderate response to γ-hexalactone
spikes/s (D. melanogaster Or42a; [4]): > 79 spikes/s

CCCCN=C=S [BITC, butyl ITC]
spikes/s (S. flava Or42a3 [2]; [3]): The A181D S307P variant and the two S. flava paralogs showed similar moderate responses to BITC
